Experimental findings from patent publication EP0251194A1, “Use of carbocyclic and heterocyclic condensed dihydropyridines for the preparation of cardioprotective remedies and heterocyclic and carbocyclic condensed dihydropyridines and methods and intermediates for their preparation” (BOEHRINGER INGELHEIM KG, priority 1986, dated 1988) are described below.

The test system of test [1] is myocardiale Radio-Calciumaufnahme. Description: Inhibition of isoprenaline-induced myocardial radio-calcium uptake in conscious rats (method of Arndts). The note with it: peroral administration, dose that inhibits by 50 % the myocardial radio-calcium uptake caused by 30 mg/kg s.c. isoprenaline. The format is in vivo, Ratten. An excerpt: Bekanntlich ist der myocardiale Ca⁺² -Gehalt ein Maß für die hypoxische bzw. die durch toxische Catecholamindosen hervorgerufene Herzschädigung (Higgins et al., Mol. Cell. Cardiol. 10: 427 - 438, 1984; Nakanishi et al., Am. J. Physiol. 242: 437 - 449, 1982; Fleckenstein, A., Vorträge der Erlanger Physiol. Tagung 1970, Ed. Keidel, Springer Verlag Berlin, Heidelberg, New York, 1971). Umgekehrt ist die Inhibition der hypoxischen oder Isoprenalin-bedingten mycardialen Calciumaufnahme ein Maß für die cardioprotektive Effektivität von Calciumantagonisten (Fleckenstein s.o.), von Calmodulininhibitoren (Higgins) und anderen Pharmaka, z.B. Betaadrenolytika (Arndts, Arzneimittelforschung 25: 1279 - 1284, 1975).
Die cardioprotektive Wirkung wurde an wachen Ratten nach subcutaner oder peroraler Wirkstoffgabe anhand der von Arndts (s.o.) beschriebenen Methode festgestellt, und die Wirkungsstärke der Testsubtanzen als H₅₀-Wert angegeben; dieser Wert entspricht der Dosis, die die durch eine Gabe von 30 (mg/kg; s.c.) Isoprenalin bedingte myocardiale Radio-Calciumaufnahme zu 50 % hemmt.

The subject of the next test is Isoliertes Rattenherz. Put plainly: Isolated Langendorff heart, oxygen deficiency by reduced perfusion flow, time to onset of regular contractions. The arrangement: species or system Ratten. The note with it: isolated rat heart; infusion of test substance during the O2 deficiency state (60 min, flow reduced 100-fold). The method, then:
Die Untersuchungen am isolierten Langendorff-Herzen wurden nach O. Langendorff, Pflügers Arch. 61, 291 (1895) mit kleinen Abwandlungen ausgeführt:
Isoliertes Rattenherz, retrograde Perfusion über die Aorta. Elektrische Stimulation (300 Impulse/min, Impulsdauer 1msec). Messung des linksventrikulär entwickelten Druckes mit flüssigkeitsgefülltem Latex-Ballon. Nach 20 min Aequilibrierung Auslösen eines Sauerstoff-Mangelzustandes mit 100-fach vermindertem Fluß durch Drosselung des Perfusionsflusses für 60 min, Rückkehr zu normalem Fluß bewirkt starken Anstieg der Grundspannung, unter Kontrollbedingungen setzt die Herztätigkeit nach 6 - 7 min unregelmäßig wieder ein, nach 15 - 18 min rascher Übergang zu regelmäßigen Kontraktionen. Cardioprotektiv wirksame Verbindungen verkürzen die Zeit bis zum Einsetzen regelmäßiger Kontraktionen. Infusion der Testsubstanz (gelöst in unbegastem Perfusionsmedium) während des O₂-Mangelzustandes herznah in das Perfusionssystem.
Die getesteten Verbindungen ergaben bei Anwendung in der unten angegebenen Konzentration eine signifikante Reduktion der Zeit bis zum Einsetzen regelmäßiger Kontraktionen.

Consider `COc1cc2c(cc1OC)C(=C(C(=O)NCCN1CCOCC1)c1ccccc1)NCC2` [Verbindung A], for which the H50-Wert in test [1] is recorded as 0.73. As for `CCCCNC(=O)C(C1=NCCc2cc(OC)c(OC)cc21)c1ccccc1` (stereo not drawn) [Verbindung B], the H50-Wert in test [1] worked out at 0.50. The “Konzentration (signifikante Reduktion der Zeit bis zum Einsetzen regelmäßiger Kontraktionen)” value in the test with Isoliertes Rattenherz is listed as 13,3 ug/ml.
